Measurements taken from ChEMBL document CHEMBL1649073, “Design and optimization of benzimidazole-containing transient receptor potential melastatin 8 (TRPM8) antagonists” (J Med Chem, 2011).

What was measured:
[1] = Cmax in rat at 10 mg/kg, po; format: ADME, organism-based; parameters: dose 10 mg/kg, route oral; conditions: in vivo
Rattus norvegicus = test: Volume of distribution at steady state in rat at 10 mg/kg, po; format: ADME, organism-based; parameters: dose 10 mg/kg, route oral; conditions: in vivo
[2] = Volume of distribution at steady state in rat at 2 mg/kg, iv; format: ADME, organism-based; parameters: dose 2 mg/kg, route intravenous; conditions: in vivo, read-out: Vdss
[3] = Plasma concentration in Sprague-Dawley rat at 1 to 30 mg/kg, po after 4 hrs; format: ADME, organism-based; parameters: dose 1-30 mg/kg, route oral
Canis familiaris [4] = test: Oral bioavailability in dog at 10 mg/kg; conditions: in vivo
[5] = Drug level in rat plasma at 3 mg/kg, po after 150 mins; format: ADME, organism-based; parameters: dose 3 mg/kg, route oral; conditions: read-out: Drug uptake
[6] = Oral bioavailability in rat at 10 mg/kg; format: ADME, organism-based; conditions: in vivo
[7] = Drug level in rat brain at 5.6 mg/kg, po after 150 mins; format: ADME, organism-based; parameters: dose 5.6 mg/kg, route oral; conditions: read-out: Drug uptake
[8] = AUC in rat at 10 mg/kg, po; format: ADME, organism-based; parameters: dose 10 mg/kg, route oral; conditions: plasma
[9] = Drug level in rat plasma at 10 mg/kg, po after 150 mins; format: ADME, organism-based; parameters: dose 10 mg/kg, route oral; conditions: read-out: Drug uptake
Canis familiaris [10] = test: AUC in dog at 10 mg/kg, po; conditions: in vivo
[11] = Volume of distribution at steady state in dog at 2 mg/kg, iv; format: ADME, organism-based, Canis lupus familiaris; parameters: dose 2 mg/kg, route intravenous; conditions: in vivo, read-out: Vdss
[12] = Drug level in rat brain at 3 mg/kg, po after 150 mins; format: ADME, organism-based; parameters: dose 3 mg/kg, route oral; conditions: read-out: Drug uptake
[13] = Cmax in dog at 10 mg/kg, po; conditions: in vivo
[14] = Drug level in rat plasma at 5.6 mg/kg, po after 150 mins; format: ADME, organism-based; parameters: dose 5.6 mg/kg, route oral; conditions: read-out: Drug uptake
[15] = Drug level in rat brain at 10 mg/kg, po after 150 mins; format: ADME, organism-based; parameters: dose 10 mg/kg, route oral; conditions: read-out: Drug uptake
[16] = Plasma concentration in guinea pig at 10 mg/kg, iv after 5 mins; format: ADME, organism-based, Cavia porcellus; parameters: dose 10 mg/kg, route intravenous

Compound: FC(F)(F)c1ccccc1-c1ccc2nc(C3=NOC4(CCCCC4)C3)[nH]c2c1
- Cmax [1]: 230 ng/mL
- Vdss (Rattus norvegicus): 13.6 L/kg

Compound: FC(F)(F)c1ccccc1-c1cc(C(F)(F)F)c2[nH]c(C3=NOC4(CCCCC4)C3)nc2c1
- Vd [2]: 2.92 L/kg
- concentration at 4 h [3]: 254 ng/mL
- Cmax [1]: 1260 ng/mL
- F (Canis familiaris [4]): 45%
- concentration at […] [5]: 295 ng/mL
- bioavailability [6]: 96%
- concentration at […] [7]: 414 ng/g
- AUC [8]: 12300 ng·h/mL
- concentration at […] [9]: 1040 ng/mL
- AUC (Canis familiaris [10]): 5252 ng·h/mL
- Vd [11]: 4.43 L/kg
- concentration at […] [12]: 175 ng/g
- Cmax [13]: 1640 ng/mL
- concentration at […] [14]: 662 ng/mL
- concentration at […] [15]: 638 ng/g
- concentration at 5 min [16]: 18200 ng/mL
